Data reported in patent EP3064205A1, “Therapeutic use of isomeric forms of 2-(4-chlorophenyl)quinolin-4-yl)(piperidin-2-yl)methanol” (Glionova AB, priority 2015, dated 2016).
Where two headings read alike, the source gives them in different places.

What was measured:
Experiment in all cases: 3D clonogenic assay (PDX)
Assay type in all cases: cell-based, human
GXF 1172 = settings: GXF 1172, Gastric; for IC50: Homo sapiens
Procedure, shortened: (§1)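 Tumor xenografts are dissociated with a collagenase/DNase/hyaluronidase/dispase cocktail, and the cells are frozen, then thawed and embedded in 0.4% agar over a 0.75% agar base. Compound is added at day 1 and left on continuously for 8–13 days. IC50 is taken as the curve inflection point or as the concentration at T/C = 50%.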

HNXF 1842 = settings: HNXF 1842, Head and Neck; for IC50: Homo sapiens
Procedure, shortened: as §1

MEXF 1765 = settings: MEXF 1765, Melanoma; for IC50: Homo sapiens
Procedure, shortened: as §1

OVXF 1353 = settings: OVXF 1353, Ovarian; for IC50: Homo sapiens
Procedure, shortened: as §1

LXFA 297 = settings: LXFA 297, Lung Adeno; for IC50: Homo sapiens
Procedure, shortened: as §1

OVXF 1023 = settings: OVXF 1023, Ovarian; for IC50: Homo sapiens, OVXF1023
Procedure, shortened: as §1

CXF 1729 = settings: CXF 1729, Colorectal; for IC50: Homo sapiens
Procedure, shortened: as §1

PAXF 2005 = settings: PAXF 2005, Pancreas; for IC50: Homo sapiens
Procedure, shortened: as §1

PAXF 2059 = settings: PAXF 2059, Pancreas; for IC50: Homo sapiens
Procedure, shortened: as §1

SXFS 627 = settings: SXFS 627, Sarcoma Soft Tissue; for IC50: Homo sapiens
Procedure, shortened: as §1

BXF 1228 = settings: BXF 1228, Bladder; for IC50: Homo sapiens
Procedure, shortened: as §1

GXA 3040 = settings: GXA 3040, Asian Gastric; for IC50: Homo sapiens
Procedure, shortened: as §1

Q: What does the source list for `O[C@H](c1cc(-c2ccc(Cl)cc2)nc2ccccc12)[C@@H]1CCCCN1` [S1, (R)-(2-(4-chlorophenyl)quinolin-4-yl)((S)-piperidin-2-yl)methanol]?
A: b (bottom plateau of concentration-effect curve) (GXF 1172): 28; t (top plateau of concentration-effect curve) (GXF 1172): 79; IC50 (GXF 1172; read-out: abs. IC50): 12.8 µM; IC50 (GXF 1172; read-out: rel. IC50): 12.5 µM; b (bottom plateau of concentration-effect curve) (HNXF 1842): 15; t (top plateau of concentration-effect curve) (HNXF 1842): 77; IC50 (HNXF 1842; read-out: abs. IC50): 5.4 µM; IC50 (HNXF 1842; read-out: rel. IC50): 5.53 µM; IC50 (MEXF 1765; read-out: abs. IC50): 8.58 µM; IC50 (MEXF 1765; read-out: rel. IC50): 8.53 µM; b (bottom plateau of concentration-effect curve) (MEXF 1765): 23; t (top plateau of concentration-effect curve) (MEXF 1765): 84; IC50 (OVXF 1353; read-out: abs. IC50): 4.91 µM; IC50 (OVXF 1353; read-out: rel. IC50): 4.72 µM; b (bottom plateau of concentration-effect curve) (OVXF 1353): 23; t (top plateau of concentration-effect curve) (OVXF 1353): 101; IC50 (LXFA 297; read-out: abs. IC50): 8.58 µM; IC50 (LXFA 297; read-out: rel. IC50): 8.45 µM; b (bottom plateau of concentration-effect curve) (LXFA 297): 24; t (top plateau of concentration-effect curve) (LXFA 297): 100; IC50 (OVXF 1023; read-out: abs. IC50): 7.49 µM; IC50 (OVXF 1023; read-out: rel. IC50): 6.84 µM; b (bottom plateau of concentration-effect curve) (OVXF 1023): 11; t (top plateau of concentration-effect curve) (OVXF 1023): 100; b (bottom plateau of concentration-effect curve) (CXF 1729): 8; t (top plateau of concentration-effect curve) (CXF 1729): 104; IC50 (CXF 1729; read-out: abs. IC50): 8.87 µM; IC50 (CXF 1729; read-out: rel. IC50): 8.82 µM; IC50 (PAXF 2005; read-out: abs. IC50): 9.16 µM; IC50 (PAXF 2005; read-out: rel. IC50): 9.06 µM; b (bottom plateau of concentration-effect curve) (PAXF 2005): 11; t (top plateau of concentration-effect curve) (PAXF 2005): 106; IC50 (PAXF 2059; read-out: abs. IC50): 13.8 µM; IC50 (PAXF 2059; read-out: rel. IC50): 13 µM; b (bottom plateau of concentration-effect curve) (PAXF 2059): 18; t (top plateau of concentration-effect curve) (PAXF 2059): 130; IC50 (SXFS 627; read-out: abs. IC50): 5.84 µM; IC50 (SXFS 627; read-out: rel. IC50): 5.74 µM; b (bottom plateau of concentration-effect curve) (SXFS 627): 7; t (top plateau of concentration-effect curve) (SXFS 627): 96; b (bottom plateau of concentration-effect curve) (BXF 1228): 22; t (top plateau of concentration-effect curve) (BXF 1228): 98; IC50 (BXF 1228; read-out: abs. IC50): 8.12 µM; IC50 (BXF 1228; read-out: rel. IC50): 6.67 µM; b (bottom plateau of concentration-effect curve) (GXA 3040): 13; t (top plateau of concentration-effect curve) (GXA 3040): 94; IC50 (GXA 3040; read-out: abs. IC50): 8.84 µM; IC50 (GXA 3040; read-out: rel. IC50): 8.79 µM
